Measured values from ChEMBL document CHEMBL5291721, “A preclinical secondary pharmacology resource illuminates target-adverse drug reaction associations of marketed drugs” (Nat Commun, 2023).

What was measured:
[1] = biological target: Growth hormone secretagogue receptor type 1 (Homo sapiens, UniProt Q92847)
[2] = biological target: Melanocortin receptor 3 (Homo sapiens, UniProt P41968)
[3] = biological target: T1, 5-hydroxytryptamine receptor 2C (Homo sapiens, UniProt P28335)
T1 sequence (P28335 whole entry): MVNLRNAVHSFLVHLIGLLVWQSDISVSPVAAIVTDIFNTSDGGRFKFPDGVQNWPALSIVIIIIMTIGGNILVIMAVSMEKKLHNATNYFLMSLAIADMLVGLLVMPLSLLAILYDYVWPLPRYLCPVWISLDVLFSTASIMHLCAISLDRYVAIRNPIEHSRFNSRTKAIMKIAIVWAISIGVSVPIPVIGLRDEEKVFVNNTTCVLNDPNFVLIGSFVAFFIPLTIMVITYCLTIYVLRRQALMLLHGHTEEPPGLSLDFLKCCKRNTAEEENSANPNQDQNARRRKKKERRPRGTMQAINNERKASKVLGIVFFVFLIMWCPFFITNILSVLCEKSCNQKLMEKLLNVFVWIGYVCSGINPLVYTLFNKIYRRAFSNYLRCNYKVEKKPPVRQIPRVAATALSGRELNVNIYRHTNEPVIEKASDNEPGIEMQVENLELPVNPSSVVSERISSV

[4] = biological target: 5-hydroxytryptamine receptor 2B (Homo sapiens, UniProt P41595); assay type: functional, cell-based
[5] = biological target: 3',5'-cyclic-AMP phosphodiesterase 4D (Homo sapiens, UniProt Q08499); assay type: functional
[6] = biological target: T2, Prostaglandin G/H synthase 1 (Rattus norvegicus, UniProt Q63921); assay type: functional
T2 sequence (Q63921 whole entry): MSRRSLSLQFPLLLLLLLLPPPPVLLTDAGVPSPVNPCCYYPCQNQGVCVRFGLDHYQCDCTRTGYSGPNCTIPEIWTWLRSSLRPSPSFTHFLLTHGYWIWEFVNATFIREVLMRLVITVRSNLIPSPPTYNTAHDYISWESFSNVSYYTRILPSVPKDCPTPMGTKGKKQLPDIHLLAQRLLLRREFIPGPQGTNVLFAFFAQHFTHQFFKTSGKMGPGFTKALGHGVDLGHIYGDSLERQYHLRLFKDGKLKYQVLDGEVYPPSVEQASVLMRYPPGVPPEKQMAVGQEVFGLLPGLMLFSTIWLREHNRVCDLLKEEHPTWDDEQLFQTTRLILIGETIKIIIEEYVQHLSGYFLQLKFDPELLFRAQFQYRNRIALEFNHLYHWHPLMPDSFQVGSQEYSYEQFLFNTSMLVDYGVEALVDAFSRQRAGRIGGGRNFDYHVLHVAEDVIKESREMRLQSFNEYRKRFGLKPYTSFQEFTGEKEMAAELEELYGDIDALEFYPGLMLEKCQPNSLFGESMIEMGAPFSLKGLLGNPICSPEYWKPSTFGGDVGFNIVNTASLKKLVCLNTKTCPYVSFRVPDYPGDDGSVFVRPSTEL

[7] = biological target: T3, Alpha-2A adrenergic receptor (Homo sapiens, UniProt P08913); assay type: functional, cell-based
T3 sequence (P08913 whole entry): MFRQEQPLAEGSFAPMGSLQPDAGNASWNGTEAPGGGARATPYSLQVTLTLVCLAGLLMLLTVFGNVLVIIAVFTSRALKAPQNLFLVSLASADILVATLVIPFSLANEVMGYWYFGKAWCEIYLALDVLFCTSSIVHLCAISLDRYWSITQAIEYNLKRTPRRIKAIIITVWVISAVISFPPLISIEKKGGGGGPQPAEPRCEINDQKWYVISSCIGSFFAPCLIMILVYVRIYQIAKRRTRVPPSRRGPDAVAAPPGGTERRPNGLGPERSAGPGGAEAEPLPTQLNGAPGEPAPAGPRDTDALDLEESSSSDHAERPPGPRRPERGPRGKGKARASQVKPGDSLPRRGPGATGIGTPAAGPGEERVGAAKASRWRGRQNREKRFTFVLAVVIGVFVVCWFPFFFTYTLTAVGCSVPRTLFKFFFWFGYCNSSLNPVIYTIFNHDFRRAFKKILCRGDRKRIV

[8] = biological target: T4, Amine oxidase [flavin-containing] A (Homo sapiens, UniProt P21397); assay type: functional
T4 sequence (P21397 whole entry): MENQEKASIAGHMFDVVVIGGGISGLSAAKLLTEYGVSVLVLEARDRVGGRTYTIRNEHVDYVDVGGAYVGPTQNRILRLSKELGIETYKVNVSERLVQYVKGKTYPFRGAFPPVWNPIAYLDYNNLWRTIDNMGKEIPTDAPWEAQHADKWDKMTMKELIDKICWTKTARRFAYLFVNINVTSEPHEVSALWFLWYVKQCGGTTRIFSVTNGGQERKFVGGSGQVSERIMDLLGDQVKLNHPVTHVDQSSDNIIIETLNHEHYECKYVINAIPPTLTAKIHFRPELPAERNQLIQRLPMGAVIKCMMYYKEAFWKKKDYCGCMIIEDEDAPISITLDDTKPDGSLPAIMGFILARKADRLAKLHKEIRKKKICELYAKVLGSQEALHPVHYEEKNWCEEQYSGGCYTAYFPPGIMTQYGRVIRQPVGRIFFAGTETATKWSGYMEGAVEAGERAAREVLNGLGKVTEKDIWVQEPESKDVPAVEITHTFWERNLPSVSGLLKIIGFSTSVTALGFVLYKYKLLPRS

[9] = biological target: T5, Cholecystokinin receptor type A (Homo sapiens, UniProt P32238)
T5 sequence (P32238 whole entry): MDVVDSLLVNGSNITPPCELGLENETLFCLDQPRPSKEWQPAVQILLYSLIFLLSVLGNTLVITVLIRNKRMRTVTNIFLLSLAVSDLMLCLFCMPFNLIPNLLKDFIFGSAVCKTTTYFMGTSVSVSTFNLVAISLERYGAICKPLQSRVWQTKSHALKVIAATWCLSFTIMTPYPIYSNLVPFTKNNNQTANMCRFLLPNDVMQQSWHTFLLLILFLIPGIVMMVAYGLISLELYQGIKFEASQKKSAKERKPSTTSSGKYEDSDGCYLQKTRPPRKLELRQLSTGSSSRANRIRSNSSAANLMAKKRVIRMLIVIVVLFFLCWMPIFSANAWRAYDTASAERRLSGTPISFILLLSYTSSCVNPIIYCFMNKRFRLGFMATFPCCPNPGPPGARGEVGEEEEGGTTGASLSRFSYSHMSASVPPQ

[10] = biological target: Bile salt export pump (Homo sapiens, UniProt O95342); assay type: functional
[11] = biological target: cGMP-inhibited 3',5'-cyclic phosphodiesterase 3A (Homo sapiens, UniProt Q14432); assay type: functional
[12] = biological target: Sodium-dependent noradrenaline transporter (Homo sapiens, UniProt P23975)
Further: assay procedure not described here.

Sequence of 3',5'-cyclic-AMP phosphodiesterase 4D (Q08499 whole entry): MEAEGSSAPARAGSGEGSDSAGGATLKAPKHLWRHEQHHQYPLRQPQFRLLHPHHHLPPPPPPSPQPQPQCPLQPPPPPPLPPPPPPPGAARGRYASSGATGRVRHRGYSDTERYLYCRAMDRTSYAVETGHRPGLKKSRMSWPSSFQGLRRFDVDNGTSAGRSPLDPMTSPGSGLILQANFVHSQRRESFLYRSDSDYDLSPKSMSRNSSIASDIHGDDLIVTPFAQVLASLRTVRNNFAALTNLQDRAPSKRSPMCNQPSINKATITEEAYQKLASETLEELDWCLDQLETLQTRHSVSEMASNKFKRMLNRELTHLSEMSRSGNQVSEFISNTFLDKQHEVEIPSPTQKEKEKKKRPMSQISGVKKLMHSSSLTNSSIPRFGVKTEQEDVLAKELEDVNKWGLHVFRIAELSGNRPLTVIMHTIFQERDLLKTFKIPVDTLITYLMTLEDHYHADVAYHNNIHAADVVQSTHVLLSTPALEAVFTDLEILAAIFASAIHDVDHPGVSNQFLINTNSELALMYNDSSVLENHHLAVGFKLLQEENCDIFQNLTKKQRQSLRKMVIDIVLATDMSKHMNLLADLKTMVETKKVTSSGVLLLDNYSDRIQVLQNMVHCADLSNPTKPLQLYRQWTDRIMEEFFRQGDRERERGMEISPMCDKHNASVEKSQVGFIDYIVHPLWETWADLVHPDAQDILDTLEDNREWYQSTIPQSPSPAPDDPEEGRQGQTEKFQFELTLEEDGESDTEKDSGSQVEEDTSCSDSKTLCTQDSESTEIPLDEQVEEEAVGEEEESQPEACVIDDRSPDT
Sequence of 5-hydroxytryptamine receptor 2B (P41595 whole entry): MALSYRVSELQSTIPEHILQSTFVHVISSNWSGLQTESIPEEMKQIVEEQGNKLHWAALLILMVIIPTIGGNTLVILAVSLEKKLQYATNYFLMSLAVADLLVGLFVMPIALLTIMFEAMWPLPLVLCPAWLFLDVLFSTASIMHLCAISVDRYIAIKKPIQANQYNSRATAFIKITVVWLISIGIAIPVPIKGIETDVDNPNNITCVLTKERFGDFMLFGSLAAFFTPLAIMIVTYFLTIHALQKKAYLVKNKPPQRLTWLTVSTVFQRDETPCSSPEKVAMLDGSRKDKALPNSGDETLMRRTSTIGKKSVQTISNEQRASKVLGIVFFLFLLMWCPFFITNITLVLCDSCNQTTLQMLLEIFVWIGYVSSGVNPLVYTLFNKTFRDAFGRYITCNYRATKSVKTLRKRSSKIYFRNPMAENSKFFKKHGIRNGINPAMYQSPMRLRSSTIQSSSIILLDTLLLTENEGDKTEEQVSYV
Sequence of cGMP-inhibited 3',5'-cyclic phosphodiesterase 3A (Q14432 whole entry): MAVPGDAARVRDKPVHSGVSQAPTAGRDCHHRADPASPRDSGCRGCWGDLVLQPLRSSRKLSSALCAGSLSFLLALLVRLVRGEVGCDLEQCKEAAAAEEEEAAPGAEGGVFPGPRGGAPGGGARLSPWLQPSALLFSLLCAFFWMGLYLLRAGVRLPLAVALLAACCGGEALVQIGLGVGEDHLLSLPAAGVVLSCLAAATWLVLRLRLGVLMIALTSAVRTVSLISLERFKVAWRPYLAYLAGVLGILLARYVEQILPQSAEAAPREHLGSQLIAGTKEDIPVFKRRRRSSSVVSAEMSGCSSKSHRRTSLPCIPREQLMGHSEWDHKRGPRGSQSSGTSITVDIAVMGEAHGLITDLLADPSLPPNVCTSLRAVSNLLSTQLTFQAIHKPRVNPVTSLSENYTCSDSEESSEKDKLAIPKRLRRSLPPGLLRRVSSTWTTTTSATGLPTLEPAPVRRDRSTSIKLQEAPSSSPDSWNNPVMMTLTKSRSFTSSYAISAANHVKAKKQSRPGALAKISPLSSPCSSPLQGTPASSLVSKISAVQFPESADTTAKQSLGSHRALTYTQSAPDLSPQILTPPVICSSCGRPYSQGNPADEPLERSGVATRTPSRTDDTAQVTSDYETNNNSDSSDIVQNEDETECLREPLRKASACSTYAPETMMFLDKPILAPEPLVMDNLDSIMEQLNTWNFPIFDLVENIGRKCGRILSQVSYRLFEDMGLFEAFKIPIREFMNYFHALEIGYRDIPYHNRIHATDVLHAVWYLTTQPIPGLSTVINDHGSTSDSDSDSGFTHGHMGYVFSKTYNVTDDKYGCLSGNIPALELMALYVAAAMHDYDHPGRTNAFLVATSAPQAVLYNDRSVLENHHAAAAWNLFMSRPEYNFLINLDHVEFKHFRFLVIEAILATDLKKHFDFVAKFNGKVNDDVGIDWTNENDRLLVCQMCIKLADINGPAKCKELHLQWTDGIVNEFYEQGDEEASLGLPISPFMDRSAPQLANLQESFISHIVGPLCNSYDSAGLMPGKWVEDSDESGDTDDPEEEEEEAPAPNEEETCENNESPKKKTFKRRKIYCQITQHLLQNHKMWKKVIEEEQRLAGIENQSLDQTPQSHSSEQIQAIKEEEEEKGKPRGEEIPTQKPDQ
Sequence of Sodium-dependent noradrenaline transporter (P23975 whole entry): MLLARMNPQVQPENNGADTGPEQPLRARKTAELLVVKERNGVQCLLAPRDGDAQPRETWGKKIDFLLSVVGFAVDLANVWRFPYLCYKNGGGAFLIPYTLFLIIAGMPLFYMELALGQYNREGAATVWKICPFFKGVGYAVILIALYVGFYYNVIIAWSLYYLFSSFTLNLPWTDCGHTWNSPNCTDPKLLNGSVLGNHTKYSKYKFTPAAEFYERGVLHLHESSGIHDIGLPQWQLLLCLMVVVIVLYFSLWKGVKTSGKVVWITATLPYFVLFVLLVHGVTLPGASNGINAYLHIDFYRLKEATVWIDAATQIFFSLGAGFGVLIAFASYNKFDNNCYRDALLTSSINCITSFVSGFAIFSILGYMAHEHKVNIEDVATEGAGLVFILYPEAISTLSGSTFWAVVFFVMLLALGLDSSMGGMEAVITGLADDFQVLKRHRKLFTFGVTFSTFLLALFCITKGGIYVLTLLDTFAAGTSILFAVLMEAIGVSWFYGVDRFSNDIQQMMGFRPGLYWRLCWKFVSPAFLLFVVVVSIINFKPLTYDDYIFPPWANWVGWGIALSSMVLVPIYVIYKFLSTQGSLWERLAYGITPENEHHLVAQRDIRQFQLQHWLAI
Sequence of Melanocortin receptor 3 (P41968 whole entry): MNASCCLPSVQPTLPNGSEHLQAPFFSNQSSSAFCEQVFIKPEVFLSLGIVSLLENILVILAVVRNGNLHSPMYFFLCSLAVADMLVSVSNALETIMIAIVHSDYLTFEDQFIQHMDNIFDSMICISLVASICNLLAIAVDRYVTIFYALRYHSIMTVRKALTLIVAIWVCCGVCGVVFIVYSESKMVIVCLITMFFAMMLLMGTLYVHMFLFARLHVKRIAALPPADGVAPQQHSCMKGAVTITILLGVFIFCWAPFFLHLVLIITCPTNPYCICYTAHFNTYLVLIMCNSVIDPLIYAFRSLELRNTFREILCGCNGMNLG
Sequence of Growth hormone secretagogue receptor type 1 (Q92847 whole entry): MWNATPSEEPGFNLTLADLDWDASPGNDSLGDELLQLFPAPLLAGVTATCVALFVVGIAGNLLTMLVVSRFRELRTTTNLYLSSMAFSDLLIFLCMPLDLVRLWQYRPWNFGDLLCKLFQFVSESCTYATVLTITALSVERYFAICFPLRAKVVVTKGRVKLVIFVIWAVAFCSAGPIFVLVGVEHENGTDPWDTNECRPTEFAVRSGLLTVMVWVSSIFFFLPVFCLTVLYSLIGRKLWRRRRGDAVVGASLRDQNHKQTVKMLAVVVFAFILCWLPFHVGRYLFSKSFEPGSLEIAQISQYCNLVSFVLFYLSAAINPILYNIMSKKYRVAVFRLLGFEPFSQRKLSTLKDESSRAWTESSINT
Sequence of Bile salt export pump (O95342 whole entry): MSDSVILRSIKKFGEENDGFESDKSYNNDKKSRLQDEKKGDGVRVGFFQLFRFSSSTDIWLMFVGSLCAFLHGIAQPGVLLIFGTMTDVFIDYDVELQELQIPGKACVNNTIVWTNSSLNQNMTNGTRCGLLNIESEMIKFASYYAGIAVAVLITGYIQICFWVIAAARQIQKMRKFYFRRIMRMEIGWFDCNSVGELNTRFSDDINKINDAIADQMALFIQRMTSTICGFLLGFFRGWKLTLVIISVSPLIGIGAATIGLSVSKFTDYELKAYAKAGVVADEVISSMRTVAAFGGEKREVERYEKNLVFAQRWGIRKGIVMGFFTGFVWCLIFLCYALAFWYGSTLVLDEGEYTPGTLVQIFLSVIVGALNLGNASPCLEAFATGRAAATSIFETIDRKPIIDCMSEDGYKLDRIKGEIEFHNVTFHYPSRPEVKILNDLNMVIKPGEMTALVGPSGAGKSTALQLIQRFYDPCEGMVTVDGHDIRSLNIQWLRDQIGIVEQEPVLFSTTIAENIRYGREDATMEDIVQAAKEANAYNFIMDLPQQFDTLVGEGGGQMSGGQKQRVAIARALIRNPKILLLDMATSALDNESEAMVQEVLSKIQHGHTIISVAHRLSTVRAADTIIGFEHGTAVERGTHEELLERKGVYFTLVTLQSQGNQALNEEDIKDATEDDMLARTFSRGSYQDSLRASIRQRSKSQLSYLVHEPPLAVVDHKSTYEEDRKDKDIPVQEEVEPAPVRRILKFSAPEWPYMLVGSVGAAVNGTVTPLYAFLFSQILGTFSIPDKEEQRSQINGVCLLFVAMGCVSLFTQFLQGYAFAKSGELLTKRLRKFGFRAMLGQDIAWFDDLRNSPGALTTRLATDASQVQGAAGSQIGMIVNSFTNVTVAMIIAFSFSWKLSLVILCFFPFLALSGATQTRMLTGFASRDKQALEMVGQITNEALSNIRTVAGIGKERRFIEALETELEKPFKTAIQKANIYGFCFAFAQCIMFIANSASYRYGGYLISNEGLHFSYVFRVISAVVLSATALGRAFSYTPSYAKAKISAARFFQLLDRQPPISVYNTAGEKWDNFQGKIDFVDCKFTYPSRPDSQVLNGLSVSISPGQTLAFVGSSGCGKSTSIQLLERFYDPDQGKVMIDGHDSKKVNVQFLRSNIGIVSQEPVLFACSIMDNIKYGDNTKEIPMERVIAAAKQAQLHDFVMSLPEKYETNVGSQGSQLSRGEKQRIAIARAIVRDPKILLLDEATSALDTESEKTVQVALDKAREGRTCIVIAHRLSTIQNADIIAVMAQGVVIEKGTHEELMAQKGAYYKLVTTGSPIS

CC(N)Cc1ccccc1 (centres undefined) [AMPHETAMINE]
AC50 [1]: > 30 µM | AC50 [2]: > 30 µM | AC50 [3]: > 30 µM | AC50 [4]: > 30 µM | AC50 [5]: > 30 µM | AC50 [6]: > 30 µM | AC50 [7]: > 30 µM | AC50 [8]: > 30 µM | AC50 [9]: > 30 µM | AC50 [10]: > 300 µM | AC50 [11]: > 30 µM

CN1CCCC(n2nc(Cc3ccc(Cl)cc3)c3ccccc3c2=O)CC1 (centres undefined) [AZELASTINE]
AC50 [1]: 14 µM | AC50 [2]: > 30 µM | AC50 [5]: > 30 µM | AC50 [12]: 4.7 µM | AC50 [6]: > 30 µM | AC50 [7]: 0.86 µM | AC50 [8]: > 30 µM | AC50 [9]: > 30 µM | AC50 [10]: > 100 µM | AC50 [11]: > 30 µM

O=C1c2c(O)c(=O)ccn2N([C@@H]2c3ccccc3SCc3c2ccc(F)c3F)[C@@H]2COCCN12 [BALOXAVIR]
AC50 [10]: 24 µM

COc1cc(Nc2c(C#N)cnc3cc(OCCCN4CCN(C)CC4)c(OC)cc23)c(Cl)cc1Cl [BOSUTINIB]
AC50 [1]: 4.3 µM | AC50 [2]: 18.1 µM | AC50 [3]: 7 µM | AC50 [5]: > 30 µM | AC50 [12]: > 10 µM | AC50 [6]: > 30 µM | AC50 [9]: > 30 µM | AC50 [11]: > 30 µM

Cc1cc(O)cc(C)c1Cl [CHLOROXYLENOL]
AC50 [10]: > 300 µM

CN(C)CCCN1c2ccccc2CCc2ccc(Cl)cc21 [CLOMIPRAMINE]
AC50 [3]: 0.53 µM | AC50 [4]: > 10 µM | AC50 [7]: > 10 µM | AC50 [8]: > 10 µM

CC(=O)OCC(=O)[C@@]1(O)CC[C@H]2[C@@H]3CCC4=CC(=O)CC[C@]4(C)[C@H]3C(=O)C[C@@]21C [CORTISONE ACETATE]
AC50 [3]: > 30 µM | AC50 [4]: > 30 µM | AC50 [5]: > 30 µM | AC50 [8]: > 30 µM | AC50 [10]: > 300 µM

CCC(=O)O[C@H]1[C@H](O[C@@H]2[C@@H](C)[C@H](O[C@H]3C[C@@](C)(OC)[C@@H](O)[C@H](C)O3)[C@@H](C)C(=O)O[C@H](CC)[C@@](C)(O)[C@H](O)[C@@H](C)C(=O)[C@H](C)C[C@@]2(C)O)O[C@H](C)C[C@@H]1N(C)C [ERYTHROMYCIN PROPIONATE]
AC50 [10]: > 300 µM

C#C[C@]1(O)CC[C@H]2[C@@H]3CCc4cc(O)ccc4[C@H]3CC[C@@]21C [ETHINYL ESTRADIOL]
AC50 [1]: > 30 µM | AC50 [2]: > 30 µM | AC50 [3]: > 30 µM | AC50 [4]: > 10 µM | AC50 [5]: 16 µM | AC50 [6]: 24.3 µM | AC50 [7]: > 10 µM | AC50 [8]: > 10 µM | AC50 [9]: > 30 µM | AC50 [10]: 38 µM | AC50 [11]: 16 µM

CCOC(=O)c1ccc(O)cc1 [ETHYLPARABEN]
AC50 [10]: > 300 µM

O=C(COc1ccc(Cl)cc1)N1CCN(Cc2ccc3c(c2)OCO3)CC1 [FIPEXIDE]
AC50 [10]: 48 µM

Cc1c(-c2ccccc2)oc2c(C(=O)OCCN3CCCCC3)cccc2c1=O [FLAVOXATE]
AC50 [10]: 220 µM

CC(C)C(=O)Nc1ccc([N+](=O)[O-])c(C(F)(F)F)c1 [FLUTAMIDE]
AC50 [1]: > 30 µM | AC50 [2]: > 30 µM | AC50 [3]: > 30 µM | AC50 [4]: > 10 µM | AC50 [5]: > 30 µM | AC50 [12]: > 10 µM | AC50 [6]: > 10 µM | AC50 [7]: > 10 µM | AC50 [8]: > 30 µM | AC50 [9]: > 30 µM | AC50 [11]: > 10 µM

C#C[C@]1(O)CC[C@H]2[C@@H]3CCC4=CC(=O)CC[C@@H]4[C@H]3CC[C@@]21CC [LEVONORGESTREL]
AC50 [10]: 94 µM

OC[C@@H](O)[C@@H](O)[C@H](O)[C@H](O)CO [MANNITOL]
AC50 [10]: > 300 µM

CN1CCCC(CN2c3ccccc3Sc3ccccc32)C1 (centres undefined) [MEPAZINE]
AC50 [10]: 100 µM

Sc1ncnc2nc[nH]c12 [MERCAPTOPURINE ANHYDROUS]
AC50 [10]: > 300 µM

C[N+]1(C)[C@@H]2C[C@@H](OC(=O)[C@H](CO)c3ccccc3)C[C@H]1[C@@H]1O[C@@H]12 [METHSCOPOLAMINE]
AC50 [10]: > 300 µM

O=C1CC[C@@]2(O)[C@H]3Cc4ccc(O)c5c4[C@@]2(CCN3CC2CC2)[C@H]1O5 [NALTREXONE]
AC50 [10]: > 300 µM

CCc1nn(CCCN2CCN(c3cccc(Cl)c3)CC2)c(=O)n1CCOc1ccccc1 [NEFAZODONE]
AC50 [1]: > 30 µM | AC50 [2]: > 30 µM | AC50 [4]: > 10 µM | AC50 [5]: > 10 µM | AC50 [6]: > 30 µM | AC50 [8]: > 10 µM | AC50 [9]: 13.3 µM | AC50 [10]: 6 µM | AC50 [11]: > 10 µM

OCCN1CCN(CCCN2c3ccccc3C=Cc3ccccc32)CC1 [OPIPRAMOL]
AC50 [1]: > 30 µM | AC50 [2]: > 30 µM | AC50 [3]: > 30 µM | AC50 [4]: > 30 µM | AC50 [5]: > 30 µM | AC50 [12]: > 30 µM | AC50 [6]: > 30 µM | AC50 [7]: > 30 µM | AC50 [8]: > 30 µM | AC50 [9]: > 30 µM | AC50 [11]: > 30 µM

CC(N/C(=N\C#N)Nc1ccncc1)C(C)(C)C (centres undefined) [PINACIDIL ANHYDROUS]
AC50 [10]: 290 µM

CC(O)CO (centres undefined) [PROPYLENE GLYCOL]
AC50 [10]: > 300 µM

CN(C)C(=O)Oc1ccc[n+](C)c1 [PYRIDOSTIGMINE]
AC50 [10]: > 300 µM

O=C(NC[C@H]1CN(c2ccc(N3CCOCC3=O)cc2)C(=O)O1)c1ccc(Cl)s1 [RIVAROXABAN]
AC50 [2]: > 30 µM | AC50 [3]: > 30 µM | AC50 [4]: > 30 µM | AC50 [5]: > 30 µM | AC50 [12]: > 30 µM | AC50 [6]: > 30 µM | AC50 [7]: > 30 µM | AC50 [8]: > 30 µM | AC50 [10]: 100 µM | AC50 [11]: > 30 µM

Cc1cc2c(cc1CC(=O)c1sccc1S(=O)(=O)Nc1onc(C)c1Cl)OCO2 [SITAXENTAN]
AC50 [10]: 9.7 µM

CC(C)OC(=O)[C@H](C)N[P@](=O)(OC[C@H]1O[C@@H](n2ccc(=O)[nH]c2=O)[C@](C)(F)[C@@H]1O)Oc1ccccc1 [SOFOSBUVIR]
AC50 [10]: 270 µM

CC(=O)OC[C@H]1O[C@@H](n2ccc(=O)[nH]c2=O)[C@H](OC(C)=O)[C@@H]1OC(C)=O [URIDINE TRIACETATE]
AC50 [10]: > 300 µM

CCOC(=O)N[C@@H]1CC[C@@H]2[C@@H](C1)C[C@H]1C(=O)O[C@H](C)[C@H]1[C@H]2/C=C/c1ccc(-c2cccc(F)c2)cn1 [VORAPAXAR]
AC50 [10]: 2.2 µM
